Data as given in patent publication US4414388A, “1-Oxo-1H-thiazolo[3,2-a]pyrimidine-2-carboxamides” (Pfizer Inc., priority 1981, dated 1983).

Experiments:
inhaled histamine = experiment: bronchoconstrictive effects of inhaled histamine; assay type: in vivo, guinea pig; conditions: 30 mg/kg i.p.
[1] = test system: IgE-mediated passive cutaneous anaphylaxis (PCA); experiment: PCA test, intravenous, comparison with Intal, IgE-mediated permeability; assay type: in vivo, rat
Description: (§1) In the PCA test, normal animals are injected intradermally (i.d.) with antibodies contained in serum obtained from actively sensitized animals. The animals are then challenged intravenously with antigen mixed with a dye such as Evans' Blue. The increased capillary permeability caused by the antigen-antibody reaction causes the dye to leak from the site of the antibody injection. The test animals are then asphyxiated and the intensity of the reaction determined by measuring the diameter and intensity of the blue coloration on the inner surface of the animals' skin.
The ability of agents to interfere with PCA reactions is measured in male Charles River Wistar rats, 170-210 g. Reaginic antiserum, rich in IgE antibodies, is prepared according to Petillo et al., Int. Arch. […] Hyperimmune antiserum rich in IgG antibodies to hen egg albumin is prepared according to Orange et al., J. Exptl. […] Forty-eight hours prior to antigen challenge, the reaginic antiserum is injected intradermally (i.d.) into the shaved skin of a normal rat's back; 5 hours before challenge the hyperimmune antisera is similarly injected. […] The difference is expressed as percent blockage due to the compound employed.

isolated rat monocytes = experiment: ionophore-stimulated synthesis and release of SRS in isolated monocytes; assay type: cell-based
[2] = stability (solid state, in admixture and in solution); assay type: physicochemical; conditions: pure solid state, with standard pharmaceutical diluents
[3] = test system: isolated guinea pig ileum; experiment: spasms of isolated guinea pig ileum; conditions: 10^-8 to 10^-4 M
dogs [4] = experiment: dogs, intravenous five days, serum enzymes; assay type: in vivo, dog; conditions: i.v. five days at 1, 3, 10, 3 and 3 mg/kg
[5] = test system: pentagastrin-stimulated acid output; experiment: pentagastrin-stimulated acid output in Heidenhain pouch dogs; assay type: in vivo, dog; conditions: 5 mg/kg, i.v.
point mutations = experiment: Ames test in vitro; assay type: cell-based
anesthetized dogs = experiment: cardiovascular effects in anesthetized dogs; assay type: in vivo, dog; conditions: cumulative doses of 5 and 15 mg/kg, i.v.
urinary volume output = experiment: diuretic activity; assay type: in vivo; conditions: oral
Description: When given orally, it caused a dose-related increase in urinary volume output at doses in the range 0.3 to 5 mg/kg. […] These findings indicate that the dose-response range for diuretic activity is considerably higher than that for antiulcer effects and just below that for antiallergy effects (1 to 10 mg/kg).

histamine and serotonin = experiment: cutaneous permeability caused by intradermal exogenous histamine and serotonin; assay type: in vivo, rat
Description: The ability of agents to interfere with PCA reactions is measured in male Charles River Wistar rats, 170-210 g. Reaginic antiserum, rich in IgE antibodies, is prepared according to Petillo et al., Int. Arch. Allergy, 44, 309 (1973). Hyperimmune antiserum rich in IgG antibodies to hen egg albumin is prepared according to Orange et al., J. Exptl. Med., 127, 767 (1968). Forty-eight hours prior to antigen challenge, the reaginic antiserum is injected intradermally (i.d.) into the shaved skin of a normal rat's back; 5 hours before challenge the hyperimmune antisera is similarly injected. At a third site 60 mcg. histamine dihydrochloride and 0.5 mcg. serotonin creatinine sulfate are injected i.d. just prior to antigen challenge as a check for antihistaminic, antiserotonin and unspecific types of blockage; the compounds of the instant invention or saline are then administered i.v. and immediately followed by the challenge of 5 mg. egg albumen and 2.5 mg. Evans' Blue dye in saline. In the case of oral administration Evans' Blue dye and egg albumin are given 5 minutes after administration of the drug. Thirty minutes later the animals are asphyxiated using chloroform and the skin of the back removed and reversed for observation. […] The difference is expressed as percent blockage due to the compound employed.

dogs [6] = experiment: toleration study in dogs, 7 days oral; assay type: in vivo, dog
Description: In toleration studies, III was given orally by gavage to dogs for a period of seven days at doses of 50, 150 and 300 mg/kg/day.

[7] = plasma concentration / oral absorption in dogs; assay type: in vivo, dog
Description: This is supported by the observations of plasma concentrations of 3 to 7 μg/ml one hour after oral administration of III, 50 to 300 mg/kg.

[8] = test system: passive cutaneous anaphylaxis (PCA); experiment: PCA test, oral activity in general; assay type: in vivo, rat
Description: as §1, with “The antiallergy property of the compounds of this invention is evaluated by the passive cutaneous anaphylaxis (PCA) test (Ovary, J. Immun., 81, 355, 1958). In” for “In”
The ability of agents to interfere with PCA reactions is measured in male Charles River Wistar rats, 170-210 g. Reaginic antiserum, rich in IgE antibodies, is prepared according to Petillo et al., Int. Arch. Allergy, 44, 309 (1973). Hyperimmune antiserum rich in IgG antibodies to hen egg albumin is prepared according to Orange et al., J. Exptl. Med., 127, 767 (1968). Forty-eight hours prior to antigen challenge, the reaginic antiserum is injected intradermally (i.d.) into the shaved skin of a normal rat's back; 5 hours before challenge the hyperimmune antisera is similarly injected. […] The difference is expressed as percent blockage due to the compound employed.

rats = experiment: toleration study in rats, 10 days oral; assay type: in vivo, rat
Description: Rats were given III orally by gavage at doses of 50, 150 and 300 mg/kg/day for 10 days.

[9] = oral gavage 50, 150 and 300 mg/kg/day, seven days
[10] = oral gavage 50, 150 and 300 mg/kg/day

O=C(Nc1nnn[nH]1)c1cnc2sc3c(n2c1=O)CCCC3 [compound III, N-(5-tetrazolyl)-1-oxo-1H-cyclohexenothiazolo[3,2-a]pyrimidine-2-carboxamide]
protection against bronchoconstrictive effects of inhaled histamine (inhaled histamine): not protected
intravenous activity in the PCA test, dose range ([1]; intravenous): 0.03 to 1.0 mg/kg
changes in cutaneous permeability induced by IgE-mediated PCA ([1]; rat, in vivo): blocks the changes in cutaneous permeability
synthesis and release of SRS in isolated rat monocytes, stimulated by an ionophore (isolated rat monocytes): is not inhibited
stability [2]: exceptionally good stability
stability ([2]; listed as formula III): highly stable
antagonism of spasms of isolated guinea pig ileum induced with acetylcholine ([3]; acetylcholine): does not antagonize spasms
antagonism of spasms of isolated guinea pig ileum induced with histamine ([3]; histamine): does not antagonize spasms
antagonism of spasms of isolated guinea pig ileum induced with SRS-A ([3]; slow reacting substance of anaphylaxis (SRS-A)): does not antagonize spasms
serum enzyme levels (dogs [4]): remained normal
pentagastrin-stimulated acid output [5]: does not affect pentagastrin-stimulated acid output
point mutations, Ames test (point mutations): did not induce point mutations
blood pressure (anesthetized dogs): transient hypotension
heart rate (anesthetized dogs): variable changes in heart rate
pressor responses to epinephrine and bilateral carotid occlusion (anesthetized dogs): diminished slightly
sodium and potassium excretion (urinary volume output): an increase in sodium and potassium excretion was observed
urinary concentrations of sodium and potassium ions (urinary volume output): unchanged
maximum effect on urinary volume output (urinary volume output; 0.3 to 5 mg/kg): twofold increase in volume output
changes in permeability caused by intradermal histamine and serotonin (histamine and serotonin; exogenous histamine and serotonin, intradermal): does not interfere with the changes in permeability
antihistaminic and antiserotonin effects (histamine and serotonin; rat, in vivo): absence of antihistaminic and antiserotonin effects
emetic effect when administered by capsule after meals (dogs [6]; capsule after, rather than before, meals): could be eliminated
emesis (dogs [6]; [9]): observed at all doses
gross pathological changes (dogs [6]; [9]): No gross pathological changes were observed
microscopic examination of liver, kidney, heart and lung (dogs [6]; [9]): did not reveal any changes
oral absorption, dog ([7]; oral suspensions or capsules): absorbed readily
concentration at 1 h ([7]; plasma, dog, one hour, oral 50 to 300 mg/kg, suspensions or capsules, read-out: plasma concentration one hour after oral administration, dog): 9000 to 26000 ng/mL
oral activity, in words [8]: excellent oral activity
serum glutamic-pyruvic transaminase (rats; highest dose (300 mg/kg/day)): slight increase
changes in clinical chemistry (other than serum glutamic-pyruvic transaminase) (rats; [10]): no changes in clinical chemistry were observed
pathological changes on gross and microscopic evaluation of liver, kidney, heart and lung (rats; [10]): no resultant pathological changes
